Measurements as given in patent US20240299535A1, “TARGETED GLYCOSAMINOGLYCAN-PARTICLES AND METHODS OF USE” (priority 2021, published 2024).

Legend:
RAW 264.7 macrophages [1] = assay: Endocytosis inhibition study of HEP-AuNP uptake (ICP-MS); format: cell-based, murine; conditions: for effect on nanoparticle cellular uptake / nanoparticle cellular uptake inhibition efficiencies: inhibitor screen, 1 h pre-incubation, nanoparticles 1.5 hours; for inhibitory effects for nanoparticle uptake: dose escalation, 0-31.4 μM chlorpromazine, 0-3.9 μM cytochalasin D
Method: Panel (A) is a schematic representation of the uptake pathway study: (i) non-specific endocytosis inhibition to determine whether nanoparticle cellular uptake is energy-dependent. (ii-iv) Specific endocytosis inhibitors for studying (ii) caveolae-mediated endocytosis, (iii) clathrin-mediated endocytosis, and (iv) macropinocytosis. Panels (B) to (D) are ICP-MS quantification of the nanoparticle cellular uptake in RAW 264.7 macrophages at 4° C.—Panel (B), in the presence of ATPase inhibitor sodium azide—Panel (C), or chemical endocytosis inhibitors of caveolae-mediated endocytosis, clathrin-mediated endocytosis, and […]—Panel (D). AuNPs modified with 13-kDa HEP (at 0.2 nM) were used as control without inhibitors at 37° C. Bars indicate mean±SD (n=3-4); statistical tests used one-way ANOVA (p<0.0001 (****); p<0.0021 (**); p<0.0332 (*).
We hypothesized that these nanoparticles might enter cells via endocytosis by one or more energy-dependent uptake pathways. Thus, we carried out a systematic endocytosis inhibition study to discern which uptake pathways were involved.
First, we pre-incubated the innate immune cells for 1 h with the endocytosis inhibitors. Then we added the nanoparticles and incubated them with the cells for 1.5 hours. We imaged the cells with a light microscope and quantified the nanoparticle uptake by ICP-MS (FIG. 2, Panel (D)).
(§1) We performed systematic dose escalation studies to assess the dose-response of the inhibitory effect and the cell toxicity of these two agents. Based on the previous dose screening experiments and published cell viability data the dose ranges were 0-31.4 μM and 0-3.9 μM for chlorpromazine and cytochalasin D, respectively.

DC 2.4 dendritic cells [2] = assay: as above; format: cell-based, murine
Method: To test whether the HEP-coated nanoparticles could enter cells through clathrin-mediated endocytosis and macropinocytosis and/or phagocytosis in another immune cell line, we conducted further inhibition experiments in DC 2.4 dendritic cells. […] Additionally, we co-incubated chlorpromazine and cytochalasin D inhibitors with cells to test if there was any additive endocytosis inhibitory effect.

RAW264.7 macrophages = assay: Cell viability assays with endocytosis inhibitors; conditions: 0-31.4 μM chlorpromazine, 0-3.9 μM cytochalasin D
Method: as §1

RAW 264.7 macrophages [3] = assay: HEP structural analog competition of HEP-AuNP uptake (ICP-MS); format: cell-based, murine; conditions: pre-incubation with competitor
Source text: To quantify the nanoparticles' cellular interactions, we performed quantitative ICP-MS and corroborated the results qualitatively with light microscopy. […] No significant competition with the remaining structural analogs was observed.

DC 2.4 dendritic cells [4] = assay: CS A competition of HEP-AuNP uptake (ICP-MS); format: cell-based, murine; conditions: 1 hour pre-incubation, nanoparticles 2.5 hour; non-cytotoxic doses
Source text: Next, we expanded the structural analog competition study to DC 2.4 dendritic cells. […] We quantified the competition efficiency by ICP-MS and corroborated the results with light microscopy.

cell uptake of HEP-AuNPs = assay: CS A competition as a function of time and concentration (ICP-MS); format: cell-based
Source text: We further assessed the competition effect of CS A as a function of time and concentration at non-cytotoxic levels. […] These competition experiments with GAG structural analog polymers imply that CS A can substitute to some degree as a ligand for HEP for the internalization receptor(s).

RAW 264.7 macrophages [5] = test system: RAW 264.7 macrophages
Source text: We next investigated whether the CS A inhibitory effect of HEP-AuNP uptake was due to a potential toxicity effect of the CS A preparation, which was extracted from a mammalian source.

Molecule: O=C(N/N=C/c1ccc(O)c(O)c1)c1cc2ccccc2cc1O [Dynasore]
- effect on nanoparticle cellular uptake (RAW 264.7 macrophages [1]): did not reduce the nanoparticle cellular uptake

Molecule: CCN(c1nc(N)c(C(=O)N=C(N)N)nc1Cl)C(C)C [EIPA, 5-(N-ethyl-N-isopropyl) amiloride]
- effect on nanoparticle cellular uptake (RAW 264.7 macrophages [1]): did not reduce the nanoparticle cellular uptake

Molecule: CCCCC[C@@H](O)[C@H]1C(=O)O[C@H](C)[C@@H](O)/C=C/C=C/C=C/C=C/C=C(\C)[C@@H](O)C[C@H](O)C[C@H](O)C[C@H](O)C[C@H](O)C[C@H](O)C[C@@H]1O [Filipin]
- effect on nanoparticle cellular uptake (RAW 264.7 macrophages [1]): did not reduce the nanoparticle cellular uptake

Molecule: CCN1C(=O)C=CC1=O [N-ethylmaleimide]
- effect on nanoparticle cellular uptake (RAW 264.7 macrophages [1]): did not reduce the nanoparticle cellular uptake

Molecule: CCN(CC)CCCC(C)Nc1ccnc2cc(Cl)ccc12 (centres unmarked) [chloroquine]
- nanoparticle cellular uptake inhibition efficiencies (RAW 264.7 macrophages [1]): ~12%

Molecule: CN(C)CCCN1c2ccccc2Sc2ccc(Cl)cc21 [chlorpromazine]
- inhibitory effects for nanoparticle uptake (RAW 264.7 macrophages [1]): approximately 70%
- nanoparticle cellular uptake inhibition efficiencies (RAW 264.7 macrophages [1]): approximately 73%
- reduction of HEP-AuNP uptake (DC 2.4 dendritic cells [2]): approximately 77%
- cytotoxicity of inhibitor doses (RAW264.7 macrophages): not cytotoxic

Molecule: C=C1[C@@H](C)[C@H]2[C@H](Cc3ccccc3)NC(=O)[C@]23[C@H](OC(C)=O)/C=C/[C@@](C)(O)C(=O)[C@@H](C)C/C=C/[C@H]3[C@@H]1O [cytochalasin D]
- inhibitory effects for nanoparticle uptake (RAW 264.7 macrophages [1]): approximately 51%
- nanoparticle cellular uptake inhibition efficiencies (RAW 264.7 macrophages [1]): ~24%
- reduction of HEP-AuNP uptake (DC 2.4 dendritic cells [2]): approximately 77%
- cytotoxicity of inhibitor doses (RAW264.7 macrophages): not cytotoxic

Molecule: CN(C)CCCN1c2ccccc2CCc2ccccc21 [imipramine]
- nanoparticle cellular uptake inhibition efficiencies (RAW 264.7 macrophages [1]): ~8%

Molecule: [N-]=[N+]=[N-] [sodium azide]
- reduction of cellular uptake of HEP-AuNPs (RAW 264.7 macrophages [1]; 0.1% w/v sodium azide): approximately 22%

Molecule: Chondroitin Sulfate A [CS A]
- reduction of cellular uptake of HEP-AuNPs vs no-competitor group (RAW 264.7 macrophages [3]): ~43%
- nanoparticle uptake vs no-competitor group (DC 2.4 dendritic cells [4]): lower nanoparticle uptake
- IC50 (inhibitor dose-response of HEP-AuNP uptake) (cell uptake of HEP-AuNPs): 500 µg/mL
- inhibitory effect over time (cell uptake of HEP-AuNPs; 1 mg/mL): persisted throughout time
- suppression of cellular uptake of HEP-AuNPs (cell uptake of HEP-AuNPs; 2 mg/mL): up to 9 fold
- effect on cell viability (RAW 264.7 macrophages [5]): did not affect cell viability

Molecule: Chondroitin Sulfate C [CS C]
- reduction of cellular uptake of HEP-AuNPs vs no-competitor group (RAW 264.7 macrophages [3]): approximately 15%

Molecule: heparin
- reduction of cellular uptake of HEP-AuNPs vs no-competitor group (RAW 264.7 macrophages [3]): approximately 18%
